Experimental data published in publication PMC6209519 (Organic & biomolecular chemistry, 2018).

What was measured:
chymotrypsin = assay: Enzymatic hydrolysis assay with chymotrypsin; type: in vitro ADME; conditions: isolated enzyme chymotrypsin
HIV-1 = conditions: across the strains tested, compared with 1

Row | Substance | % remaining after 10 mins (chymotrypsin) [%] | increase in antiviral activity relative to peptide 1 (HIV-1) [fold] | IC50 (HIV-1 DU422) [nM] | IC50 (HIV-1 SF162) [nM] | IC50 (HIV-1 CZA97) [nM] | IC50 (HIV-1 MN) [nM]
1 | MTWEEWDKKIEEYTKKIEELIγKS [Peptide 3] | 17.6 | < 2 |  |  |  | 
2 | MTWXEWDXKIEEYTKKIEELIγKS (sidechain bridge or staple) [Peptide 4] | 57.2 |  |  |  |  | 
3 | Enfuvirtide |  |  | 56 ± 1.6 | 23.9 ± 2.1 | 941 ± 328 | 6.5 ± 0.6
